Where a name gives a salt, the structure may show the parent alone.
Columns and labels:
[1] = target: T1, endogenous cellular BACE2 (Rattus norvegicus, UniProt Q6IE75); test: Assay for BACE inhibition by measuring cellular TMEM27 cleavage; type: cell-based; details: INS-TMEM27 (INS1e-derived) cells, shed human TMEM27 in supernatant by ELISA
T1 construct: endogenous cellular BACE2 in the Ins1e rat cell line; endogenous in cells; host or cells: INS-TMEM27 (INS1e-derived rat insulinoma cell line with doxycycline-inducible full-length human TMEM27)
T1 sequence (Q6IE75 63-514): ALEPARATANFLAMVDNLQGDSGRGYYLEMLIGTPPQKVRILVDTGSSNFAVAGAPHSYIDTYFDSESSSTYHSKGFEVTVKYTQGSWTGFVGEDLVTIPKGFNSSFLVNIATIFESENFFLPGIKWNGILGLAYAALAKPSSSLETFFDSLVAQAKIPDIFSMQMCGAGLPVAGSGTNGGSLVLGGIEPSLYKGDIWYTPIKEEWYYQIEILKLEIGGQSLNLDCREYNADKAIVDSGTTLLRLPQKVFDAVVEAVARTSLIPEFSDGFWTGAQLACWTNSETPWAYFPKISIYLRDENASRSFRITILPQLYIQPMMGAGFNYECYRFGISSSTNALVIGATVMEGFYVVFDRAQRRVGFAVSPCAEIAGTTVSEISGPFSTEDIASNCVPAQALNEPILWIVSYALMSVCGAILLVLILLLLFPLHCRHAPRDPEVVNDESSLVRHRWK
Method in brief: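 INS1e rat cells with doxycycline-inducible human TMEM27 get inhibitor 2 h before doxycycline (500 ng/ml final), then 46 h further at 37° C. Shed TMEM27 in the supernatant is measured by sandwich ELISA, and the EC50 comes from a curve fit of the ELISA signal.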

Aβ40 = test: Cellular Aβ-lowering assay; type: cell-based; details: HEK293 cells stably expressing human APP695, Aβ40 in supernatant by ELISA after 18-20 hrs; read-out: Cellular assay Abeta40 IC50
Method in brief: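 HEK293 cells stably expressing human wild-type APP695 were treated with compound for 18-20 h at 37 °C in 0.8% v/v DMSO. Secreted Aβ40 in the supernatant was measured by sandwich ELISA (Aβ40 C-terminus-specific capture, HRP-4G8 detection, TMB read at 450 nm) and quantified against a pure Aβ peptide standard curve.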

Row | IC50 [1] [µM] | IC50 (Aβ40) [µM] | Structure (SMILES)
1 | 0.28 | 0.014 | CCOCc1ccc(C(=O)Nc2ccc(F)c([C@@]3(C)N=C(N)COCC3(F)F)c2)nc1 [Example 57, (R)-N-(3-(3-amino-6,6-difluoro-5-methyl-2,5,6,7-tetrahydro-1,4-oxazepin-5-yl)-4-fluorophenyl)-5-(ethoxymethyl)picolinamide formate]
2 | 0.139 | 0.12 | CCOC(=O)c1ccc(C(=O)Nc2ccc(F)c([C@@]3(C)N=C(N)COCC3(F)F)c2)nc1 [Example 58, (R)-ethyl 6-(3-(3-amino-6,6-difluoro-5-methyl-2,5,6,7-tetrahydro-1,4-oxazepin-5-yl)-4-fluorophenylcarbamoyl)nicotinate formate formate]
3 | 4.16 | 0.026 | C[C@]1(c2cc(NC(=O)c3ccc(OCC(F)F)cn3)ccc2F)N=C(N)COCC1(F)F [Example 60, (R)-N-(3-(3-amino-6,6-difluoro-5-methyl-2,5,6,7-tetrahydro-1,4-oxazepin-5-yl)-4-fluorophenyl)-5-(2,2-difluoroethoxy)picolinamide formate]
4 | 0.091 | 0.0003 | C[C@]1(c2cc(NC(=O)c3ccc(C#N)cn3)ccc2F)N=C(N)COC[C@@H]1F [Example 63, N-(3-((5R,6R)-3-amino-6-fluoro-5-methyl-2,5,6,7-tetrahydro-1,4-oxazepin-5-yl)-4-fluorophenyl)-5-cyanopicolinamide]
5 | 0.4 | 0.36 | C[C@]1(c2cc(NC3CCCC3)ccc2F)N=C(N)COCC1(F)F [Example 64, (R)-5-(5-(cyclopentylamino)-2-fluorophenyl)-6,6-difluoro-5-methyl-2,5,6,7-tetrahydro-1,4-oxazepin-3-amine]
6 | 0.0544 | 0.0153 | C[C@]1(c2cc(NC(=O)c3csc(Cl)n3)ccc2F)N=C(N)COCC1(F)F [Example 66, (R)-N-(3-(3-Amino-6,6-difluoro-5-methyl-2,5,6,7-tetrahydro-1,4-oxazepin-5-yl)-4-fluorophenyl)-2-chlorothiazole-4-carboxamide formate]
7 | 67.4 | 0.288 | CC(C)Oc1ccc(C(=O)Nc2ccc(F)c([C@@]3(C)N=C(N)COCC3(F)F)c2)nc1 [Example 67, (R)-N-(3-(3-Amino-6,6-difluoro-5-methyl-2,5,6,7-tetrahydro-1,4-oxazepin-5-yl)-4-fluorophenyl)-5-isopropoxypicolinamide formate]
8 | 12.4 | 1.5 | C[C@]1(c2cc(NC(=O)c3cnc(OCCF)cn3)ccc2F)N=C(N)COCC1(F)F [Example 71, (R)-N-(3-(3-Amino-6,6-difluoro-5-methyl-2,5,6,7-tetrahydro-1,4-oxazepin-5-yl)-4-fluorophenyl)-5-(2-fluoroethoxy)pyrazine-2-carboxamide formate]
9 | 6.52 | 0.3 | C[C@]1(c2cc(NC(=O)c3nsc(Cl)n3)ccc2F)N=C(N)COCC1(F)F [Example 73, (R)-N-(3-(3-Amino-6,6-difluoro-5-methyl-2,5,6,7-tetrahydro-1,4-oxazepin-5-yl)-4-fluorophenyl)-5-chloro-1,2,4-thiadiazole-3-carboxamide formate]
10 | 0.0743 | 0.06 | CC[C@]1(c2cc(NC(=O)c3ccc(F)cn3)ccc2F)N=C(N)COCC1(F)F [Example 78, (R)-N-(3-(3-Amino-5-ethyl-6,6-difluoro-2,5,6,7-tetrahydro-1,4-oxazepin-5-yl)-4-fluorophenyl)-5-fluoropicolinamide]
11 | 0.0671 | 0.07 | CC[C@]1(c2cc(NC(=O)c3ccc(C#N)cn3)ccc2F)N=C(N)COCC1(F)F [Example 79, (R)-N-(3-(3-Amino-5-ethyl-6,6-difluoro-2,5,6,7-tetrahydro-1,4-oxazepin-5-yl)-4-fluorophenyl)-5-cyanopicolinamide]

Further lines, the compound ahead of its results:

Row | Structure (SMILES) | IC50 [1] [µM] | IC50 (Aβ40) [µM]
12 | C[C@]1(c2cc(NC(=O)c3ccc(OCC(F)(F)C(F)F)cn3)ccc2F)N=C(N)COCC1(F)F [Example 54, (R)-N-(3-(3-amino-6,6-difluoro-5-methyl-2,5,6,7-tetrahydro-1,4-oxazepin-5-yl)-4-fluorophenyl)-5-(2,2,3,3-tetrafluoropropoxy)picolinamide formate] | 0.57 | 0.029
13 | COC(C)C(=O)Nc1ccc(F)c([C@@]2(C)N=C(N)COCC2(F)F)c1 (stereo partly drawn) [Example 55, N-(3-((R)-3-amino-6,6-difluoro-5-methyl-2,5,6,7-tetrahydro-1,4-oxazepin-5-yl)-4-fluorophenyl)-2-methoxypropanamide formate] | 0.19 | 0.14
14 | C[C@]1(c2cc(NC(=O)c3ncc(C#N)cc3Cl)ccc2F)N=C(N)COCC1(F)F [Example 56, (R)-N-(3-(3-amino-6,6-difluoro-5-methyl-2,5,6,7-tetrahydro-1,4-oxazepin-5-yl)-4-fluorophenyl)-3-chloro-5-cyanopicolinamide formate] | 0.0156 | 0.0015
15 | C[C@]1(c2cc(NC(=O)c3ncccc3OCC(F)(F)F)ccc2F)N=C(N)COCC1(F)F [Example 59, (R)-N-(3-(3-amino-6,6-difluoro-5-methyl-2,5,6,7-tetrahydro-1,4-oxazepin-5-yl)-4-fluorophenyl)-3-(2,2,2-trifluoroethoxy)picolinamide] | 0.17 | 0.16
16 | C[C@]1(c2cc(NC(=O)c3ccc(Cl)cn3)ccc2F)N=C(N)COC[C@@H]1F [Example 61, N-(3-((5R,6R)-3-amino-6-fluoro-5-methyl-2,5,6,7-tetrahydro-1,4-oxazepin-5-yl)-4-fluorophenyl)-5-chloropicolinamide] | 0.001 | 0.0002
17 | C[C@]1(c2cc(NC(=O)c3ccc(F)cn3)ccc2F)N=C(N)COC[C@@H]1F [Example 62, N-(3-((5R,6R)-3-amino-6-fluoro-5-methyl-2,5,6,7-tetrahydro-1,4-oxazepin-5-yl)-4-fluorophenyl)-5-fluoropicolinamide] | 0.001 | 0.0018
18 | C[C@]1(c2cc(NC3CCCC3)ccc2F)N=C(N)COC[C@@H]1F [Example 65, (5R,6R)-5-(5-(cyclopentylamino)-2-fluorophenyl)-6-fluoro-5-methyl-2,5,6,7-tetrahydro-1,4-oxazepin-3-amine] | 0.056 | 0.048
19 | C[C@@]1(c2cc(NC(=O)c3ccc(F)cn3)ccc2F)C[C@@H](c2ccccc2)OCC(N)=N1 [Example 68, 5-Fluoro-pyridine-2-carboxylic acid [3-((5S,7S)-3-amino-5-methyl-7-phenyl-2,5,6,7-tetrahydro-[1,4]oxazepin-5-yl)-4-fluoro-phenyl]-amide] | 5.25 | 3.85
20 | C[C@]1(c2cc(NC(=O)c3ccc(OCF)cn3)ccc2F)N=C(N)COCC1(F)F [Example 70, (R)-N-(3-(3-Amino-6,6-difluoro-5-methyl-2,5,6,7-tetrahydro-1,4-oxazepin-5-yl)-4-fluorophenyl)-5-(fluoromethoxy)picolinamide formate] | 0.172 | 0.0052
21 | C[C@]1(c2cc(NC(=O)c3cc(Cl)c(Cl)s3)ccc2F)N=C(N)COCC1(F)F [Example 72, (R)-N-(3-(3-Amino-6,6-difluoro-5-methyl-2,5,6,7-tetrahydro-1,4-oxazepin-5-yl)-4-fluorophenyl)-4,5-dichlorothiophene-2-carboxamide formate,] | 2.44 | 0.59
22 | C[C@]1(c2cc(NC(=O)c3cnc(OCC(F)F)cn3)ccc2F)N=C(N)COCC1(F)F [Example 74, (R)-N-(3-(3-Amino-6,6-difluoro-5-methyl-2,5,6,7-tetrahydro-1,4-oxazepin-5-yl)-4-fluorophenyl)-5-(2,2-difluoroethoxy)pyrazine-2-carboxamide formate] | 3.38 | 0.01
23 | CC[C@]1(c2cc(NC(=O)c3ccccn3)ccc2F)N=C(N)COCC1(F)F [Example 75, (R)-N-(3-(3-amino-5-ethyl-6,6-difluoro-2,5,6,7-tetrahydro-1,4-oxazepin-5-yl)-4-fluorophenyl)picolinamide] | 0.0898 | 0.41
24 | CC[C@]1(c2cc(NC(=O)c3ncccc3Cl)ccc2F)N=C(N)COCC1(F)F [Example 76, (R)-N-(3-(3-Amino-5-ethyl-6,6-difluoro-2,5,6,7-tetrahydro-1,4-oxazepin-5-yl)-4-fluorophenyl)-3-chloropicolinamide] | 0.568 | 0.004
25 | CC[C@]1(c2cc(NC(=O)c3ncccc3C(F)(F)F)ccc2F)N=C(N)COCC1(F)F [Example 77, (R)-N-(3-(3-Amino-5-ethyl-6,6-difluoro-2,5,6,7-tetrahydro-1,4-oxazepin-5-yl)-4-fluorophenyl)-3-(trifluoromethyl)picolinamide] | 0.179 | 0.75
